Reference: patent US20260174829A1, “METHODS OF REDUCING TYPE 2 CYTOKINE-MEDIATED INFLAMMATION USING NEUROMEDIN PEPTIDES” (Rutgers, The State University of New Jersey, priority 2018, published 2026)

system: TH2 cells; experiment: Anti-CD3/anti-CD28 stimulated lymph node cells (day 7 post-Nb), IL-5/IL-13 ELISA; type: cell-based, mouse; settings: LN cells day 7 post-Nb, anti-CD3 and anti-CD28, 48 hours
Procedure: FIGS. 7A-7I. Nmb treatment is sufficient to suppress allergic airway inflammation. Mice challenged with papain were treated with PBS or Nmb (i.t.) and (A) Lung ILC2s, (B) IL-5+ and IL-13+ ILC2s, and (C) eosinophils were evaluated. […] Mesenteric lymph nodes (MLNs) were isolated on day 7 post-Nb and single cells suspensions were treated with anti-CD3 and anti-CD28 in the presence or absence of Nmb for 48 hours and (E), IL-5 and (F) IL-13 were quantified in cell-free supernatants by ELISA. (F-I), Modified versions of Nmb (see Table 2) were tested for their ability to alter IL-5 and IL-13 production from anti-CD3 and anti-CD28 MLN cells isolated on day 7 post-Nb. P values were determined by two-tailed Student's t-tests. Blue asterisks represent comparisons between media treated controls and native Nmb. Red asterisks represent comparisons between media treated controls and modified version of Nmb as described in Table 2. (*,p<0.05), (**,p<0.01), (***,p<0.001) or (F-I).
FIGS. 8A-8B. Mesenteric lymph nodes (MLNs) were isolated on day 7 post-Nb and single cells suspensions were treated with anti-CD3 and anti-CD28 in the presence or absence of native Nmb or modified versions of the peptide for 48 hours and (A), IL-5 and (B) IL-13 were quantified in cell-free supernatants by ELISA. P values were determined by two-tailed Student's t-tests. Blue asterisks represent comparisons between media treated controls and native Nmb. Red asterisks represent comparisons between media treated controls and modified version of Nmb as described in Table 2. (*,p<0.05), (**,p<0.01), (***,p<0.001).
At the time points evaluated post-Nb, the majority of the type 2 cytokines are ILC2-derived (14) and any effects Nmb is having on TH2 cell responses may be difficult to detect. To address this, lung-draining LNs were isolated on day 7 post-Nb and stimulated with anti-CD3 and -CD28 to activate T cells in both the presence of absence of recombinant Nmb. LN cells treated with anti-CD3 and -CD28 produced increased amounts of IL-5, and IL-13 (FIGS. 7D, 7E).
Thus, Nmb can be employed to reduce type 2 cytokine-mediated inflammation. Native Nmb is a 10-mer peptide (SEQ ID NO: 1) that operates via its ability to bind the Nmb receptor (15). This example describes the results of an alanine scan to systematically replace various residues of the Nmb with alanine (Table 2) and the resulting ability of the variant Nmb peptides to inhibit type 2 cytokine production by TH2 cells. Further, caps were added to the native form of Nmb (SEQ ID NO: 1) and its bioactivity monitored (FIG. 5A).

Molecule | capacity to inhibit IL-5 production compared to native Nmb | capacity to inhibit IL-13 production compared to native Nmb
H2N-GLWATGHFM-amide (H-GLWATGHFM-NH2) [O] | reduced capacity | 
H2N-GNLWATGHM-amide (H-GNLWATGHM-NH2) [V] | reduced capacity | reduced capacity
H2N-GNLAATGHFM-amide (H-GNLAATGHFM-NH2) |  | significantly greater capacity
H2N-LWATGH-amide (H-LWATGH-NH2) [AG] | significant enhanced capacity | enhanced capacity
H2N-WATGHFM-amide (H-WATGHFM-NH2) [AD] |  | enhanced capacity
H2N-WATGHF-amide (H-WATGHF-NH2) [AH] | significant enhanced capacity | enhanced capacity
H2N-NLWATGH-amide (H-NLWATGH-NH2) [AB] |  | enhanced capacity
H2N-GNLWATGHF-amide (H-GNLWATGHF-NH2) | reduced capacity | 
H2N-NLWATGHFM-amide (H-NLWATGHFM-NH2) | reduced capacity | 
H2N-GNLWATAHFM-amide (H-GNLWATAHFM-NH2) | significantly reduced capacity | significantly reduced capacity
H2N-GNWATGHFM-amide (H-GNWATGHFM-NH2) [P] | reduced capacity | 
H2N-ATGHFM-amide (H-ATGHFM-NH2) [AI] |  | enhanced capacity
H2N-GNLWATHFM-amide (H-GNLWATHFM-NH2) |  | enhanced capacity
H2N-GNLWATGFM-amide (H-GNLWATGFM-NH2) [U] | reduced capacity | 
H2N-LWATGHF-amide (H-LWATGHF-NH2) [AC] |  | enhanced capacity
H2N-GNAWATGHFM-amide (H-GNAWATGHFM-NH2) [C] | significantly reduced capacity | significantly greater capacity
H2N-GNLWATGHFM-NHMe |  | significantly greater capacity
H2N-GNLWTGHFM-amide (H-GNLWTGHFM-NH2) [R] | reduced capacity | enhanced capacity
H2N-GNLWATGHAM-amide (H-GNLWATGHAM-NH2) |  | significantly reduced capacity
H2N-NLWATGHF-amide (H-NLWATGHF-NH2) [Y] | significant enhanced capacity | enhanced capacity
H2N-GNLWATG-amide (H-GNLWATG-NH2) [AA] | significant enhanced capacity | enhanced capacity
H2N-GNLWATGHFA-amide (H-GNLWATGHFA-NH2) |  | significantly greater capacity
H2N-GALWATGHFM-amide (H-GALWATGHFM-NH2) [B] |  | significantly greater capacity
Methanesulfonyl-GNLWATGHFM-amide [K] | significantly reduced capacity | significantly greater capacity
H2N-ANLWATGHFM-amide (H-ANLWATGHFM-NH2) |  | significantly greater capacity
Ac-GLLWATGHFM-amide (Ac-GLLWATGHFM-NH2) [J] |  | significantly greater capacity
H2N-LWATGHFM-amide (H-LWATGHFM-NH2) [Z] |  | enhanced capacity
H2N-GNLWATGH-amide (H-GNLWATGH-NH2) [X] | significant enhanced capacity | enhanced capacity

system: NMBR expression by ILC2s; experiment: NMBR expression by cultured lung ILC2s, flow cytometry; type: cell-based, mouse; settings: ILC2s day 7 post-Nb, IL-2 and IL-7, overnight culture
Source text: FIG. 9. Basophils regulate NMBR expression. ILC2s were sort-purified from the lung of Nb-infected mice (day 7) and stimulated with survival cytokines (IL-7 and IL-2) and also with activated basophils, IL-4 or IL-33 overnight. NMBR expression was monitored by flow cytometric analysis post-culture. Data are presented as […] mean fluorescent intensity (GMFI). Statistical comparisons were done using a Student's t-test.
FIG. 14. Prostaglandin E2 upregulates expression of NMBR on lymphocytes. Lung ILC2s were sort-purified from the lungs of mice on day 7 post-Nb and cultured with a combination of survival cytokines (IL-2 and IL-7) and/or activating cytokines (IL-25 and IL-33). In addition, cultures were treated with NMB or prostaglandin E2 (PGE2) and the expression of NMBR was measured by flow cytometric analysis on day 4 post-culture. Statistical analysis was performed using a student's t-test. Negative NMBR staining as determined by an isotype control antibody is also shown (Isot).
NMBR expression by lung ILC2s was reduced when basophils are depleted following an Nb infection. To determine whether basophils directly mediate expression of NMBR or whether they operate through intermediate pathways, ILC2s were sort-purified from the lungs of Nb-infected mice (day 7) and cultured with the survival cytokines IL-2 and IL-7. Additionally, the ILC2s were cultured with activated basophils, IL-4, or IL-33 overnight. NMBR expression was subsequently monitored by flow cytometric analysis post-culture.
To better determine the mechanisms through which basophils regulate expression of NMBR on lymphocytes, ILC2s were cultured with a combination of survival and activating cytokines in the presence or absence of NMB or prostaglandin E2 (PGE2).

Molecule | NMBR expression levels on ILC2s
IL-4: cytokine known to promote ILC2 activation (protein, UniProt P05112 25-153, looked up) Interleukin-4: HKCDITLQEIIKTLNSLTEQKTLCTELTVTDIFAASKNTTEKETFCRAATVLRQFYSHHEKDTRCLGATAQQFHRHKQLIRFLKRLDRNLWGLAGLNSCPVKEANQSTLENFLERLKTIMREKYSKCSS | no changes
IL-33: cytokine known to promote ILC2 activation (protein, UniProt O95760 1-270, looked up) Interleukin-33: MKPKMKYSTNKISTAKWKNTASKALCFKLGKSQQKAKEVCPMYFMKLRSGLMIKKEACYFRRETTKRPSLKTGRKHKRHLVLAACQQQSTVECFAFGISGVQKYTRALHDSSITGISPITEYLASLSTYNDQSITFALEDESYEIYVEDLKKDEKKDKVLLSYYESQHPSNESGDGVDGKMLMVTLSPTKDFWLHANNKEHSVELHKCEKPLPDQAFFVLHNMHSNCVSFECKTDPGVFIGVKDNHLALIKVDSSENLCTENILFKLSET | no changes

same assay, conditions: ILC2s day 7 post-Nb, survival and/or activating cytokines, day 4 post-culture

Molecule | NMBR expression by ILC2s
CCCCC[C@H](O)/C=C/[C@H]1[C@H](O)CC(=O)[C@@H]1C/C=C\CCCC(=O)O [PGE2, prostaglandin E2, reference compound] | significantly upregulated
IL-25: activating cytokine used in ILC2 cultures (protein, UniProt Q9H293 33-177, looked up) Interleukin-25: YSHWPSCCPSKGQDTSEELLRWSTVPVPPLEPARPNRHPESCRASEDGPLNSRAISPWRYELDRDLNRLPQDLYHARCLCPHCVSLQTGSHMDPRGNSELLYHNQTVFYRRPCHGEKGTHKGYCLERRLYRVSLACVCVRPRVMG | failed to upregulate
IL-33: cytokine known to promote ILC2 activation (protein, UniProt O95760 1-270, looked up) Interleukin-33: MKPKMKYSTNKISTAKWKNTASKALCFKLGKSQQKAKEVCPMYFMKLRSGLMIKKEACYFRRETTKRPSLKTGRKHKRHLVLAACQQQSTVECFAFGISGVQKYTRALHDSSITGISPITEYLASLSTYNDQSITFALEDESYEIYVEDLKKDEKKDKVLLSYYESQHPSNESGDGVDGKMLMVTLSPTKDFWLHANNKEHSVELHKCEKPLPDQAFFVLHNMHSNCVSFECKTDPGVFIGVKDNHLALIKVDSSENLCTENILFKLSET | failed to upregulate
